#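 Interpolation was linear, between the two tested concentrations surrounding the appropriate level; five concentrations were tested over 48 hours in 96-well plates. TGI: concentration producing complete growth inhibition.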
# How the values were obtained:
# Test in all cases: NCI tumour cell line growth inhibition, 48 h
# SNB-19 CNS = system: SNB-19 CNS
# NCI-H226 lung = system: NCI-H226 lung
# DU-145 prostate = system: DU-145 prostate
# U251 CNS = system: U251 CNS
# KM12 colon = system: KM12 colon
# M14 melanoma = system: M14 melanoma
# SK-MEL-28 melanoma = system: SK-MEL-28 melanoma
# A498 renal = system: A498 renal
# MDA-MB-435 = system: MDA-MB-435
# MDA-N = system: MDA-N
# K-562 leukemia = system: K-562 leukemia
# UACC-257 melanoma = system: UACC-257 melanoma
# SNB-75 CNS = system: SNB-75 CNS
# NCI-H23 lung = system: NCI-H23 lung
# RPMI-8226 leukemia = system: RPMI-8226 leukemia
# SF-295 CNS = system: SF-295 CNS
# OVCAR-3 ovarian = system: OVCAR-3 ovarian
# HL-60(TB) leukemia = system: HL-60(TB) leukemia
# HCC-2998 colon = system: HCC-2998 colon
# CCRF-CEM leukemia = system: CCRF-CEM leukemia
# ACHN renal = system: ACHN renal
# SK-MEL-2 melanoma = system: SK-MEL-2 melanoma
# 786-0 renal = system: 786-0 renal
# SK-OV-3 ovarian = system: SK-OV-3 ovarian
# OVCAR-5 ovarian = system: OVCAR-5 ovarian
# PC-3 prostate = system: PC-3 prostate
# OVCAR-4 ovarian = system: OVCAR-4 ovarian
# A549 NSCLC = system: A549 NSCLC
# NCI-H522 lung = system: NCI-H522 lung
# SF-268 CNS = system: SF-268 CNS
# COLO 205 colon = system: COLO 205 colon
# SR leukemia = system: SR leukemia
# SK-MEL-5 melanoma = system: SK-MEL-5 melanoma
# SF-539 CNS = system: SF-539 CNS
# MCF7 breast = system: MCF7 breast
# SW-620 colon = system: SW-620 colon
# SN12C renal = system: SN12C renal
# CAKI-1 renal = system: CAKI-1 renal
# LOX IMVI melanoma = system: LOX IMVI melanoma
# OVCAR-8 ovarian = system: OVCAR-8 ovarian
# HOP-62 NSCLC = system: HOP-62 NSCLC
# MDA-MB-231 breast = system: MDA-MB-231 breast
# EKVX NSCLC = system: EKVX NSCLC
# IGROV1 ovarian = system: IGROV1 ovarian
# HT29 colon = system: HT29 colon
# UACC-62 melanoma = system: UACC-62 melanoma
# RXF 393 renal = system: RXF 393 renal
# MOLT-4 leukemia = system: MOLT-4 leukemia
# HS 578T breast = system: HS 578T breast
# HCT-15 colon = system: HCT-15 colon
# UO-31 renal = system: UO-31 renal
# NCI-H460 lung = system: NCI-H460 lung
# NCI/ADR-RES ovarian = system: NCI/ADR-RES ovarian
# T-47D breast = system: T-47D breast
# HCT-116 colon = system: HCT-116 colon
# BT-549 breast = system: BT-549 breast
# TK-10 renal = system: TK-10 renal
# MALME-3M melanoma = system: MALME-3M melanoma
# HOP-92 NSCLC = system: HOP-92 NSCLC
smiles,measurement,setting,value
O=C1/C(=C/c2ccc(O)cc2)CCc2ccccc21,TGI,SNB-19 CNS,50.7 µM
same,TGI,NCI-H226 lung,57.8 µM
same,TGI,DU-145 prostate,64.9 µM
same,TGI,U251 CNS,69.7 µM
same,TGI,KM12 colon,32.2 µM
same,TGI,M14 melanoma,36.6 µM
same,TGI,SK-MEL-28 melanoma,37 µM
same,TGI,A498 renal,44.5 µM
same,TGI,MDA-MB-435,52.8 µM
same,TGI,MDA-N,57.7 µM
same,TGI,K-562 leukemia,81.3 µM
same,TGI,UACC-257 melanoma,35.8 µM
same,TGI,SNB-75 CNS,> 70.7 µM
same,TGI,NCI-H23 lung,55.2 µM
same,TGI,RPMI-8226 leukemia,34.9 µM
same,TGI,SF-295 CNS,> 63.7 µM
same,TGI,OVCAR-3 ovarian,52.7 µM
same,TGI,HL-60(TB) leukemia,36.7 µM
same,TGI,HCC-2998 colon,43.6 µM
same,TGI,CCRF-CEM leukemia,10.9 µM
same,TGI,ACHN renal,69.5 µM
same,TGI,SK-MEL-2 melanoma,36 µM
same,TGI,786-0 renal,39.1 µM
same,TGI,SK-OV-3 ovarian,> 89.4 µM
same,TGI,OVCAR-5 ovarian,> 91 µM
same,TGI,PC-3 prostate,39.2 µM
same,TGI,OVCAR-4 ovarian,> 74.5 µM
same,TGI,A549 NSCLC,64.1 µM
same,TGI,NCI-H522 lung,5.61 µM
same,TGI,SF-268 CNS,37.6 µM
same,TGI,COLO 205 colon,40.5 µM
same,TGI,SR leukemia,16 µM
same,TGI,SK-MEL-5 melanoma,32.5 µM
same,TGI,SF-539 CNS,38.4 µM
same,TGI,MCF7 breast,82.4 µM
same,TGI,SW-620 colon,40.1 µM
same,TGI,SN12C renal,38.1 µM
same,TGI,CAKI-1 renal,91.5 µM
same,TGI,LOX IMVI melanoma,49.2 µM
same,TGI,OVCAR-8 ovarian,73.5 µM
same,TGI,HOP-62 NSCLC,55.4 µM
same,TGI,MDA-MB-231 breast,43.4 µM
same,TGI,EKVX NSCLC,58.3 µM
same,TGI,IGROV1 ovarian,> 76 µM
same,TGI,HT29 colon,45 µM
same,TGI,UACC-62 melanoma,46.2 µM
same,TGI,RXF 393 renal,35.1 µM
same,TGI,MOLT-4 leukemia,12.4 µM
same,TGI,HS 578T breast,94.3 µM
same,TGI,HCT-15 colon,40.4 µM
same,TGI,UO-31 renal,47.9 µM
same,TGI,NCI-H460 lung,72.4 µM
same,TGI,NCI/ADR-RES ovarian,44.8 µM
same,TGI,T-47D breast,> 100 µM
same,TGI,HCT-116 colon,31.6 µM
same,TGI,BT-549 breast,41.4 µM
same,TGI,TK-10 renal,> 95.9 µM
same,TGI,MALME-3M melanoma,42.9 µM
same,TGI,HOP-92 NSCLC,91.1 µM
Nc1nc(Cl)cc(NCC2(CO)CC(Cc3ccccc3)C2)n1 (configuration not stated),TGI,SNB-19 CNS,> 100 µM
same,TGI,NCI-H226 lung,> 91.1 µM
same,TGI,DU-145 prostate,> 100 µM
same,TGI,U251 CNS,> 100 µM
same,TGI,KM12 colon,> 100 µM
same,TGI,M14 melanoma,37.1 µM
same,TGI,SK-MEL-28 melanoma,> 100 µM
same,TGI,A498 renal,78.7 µM
same,TGI,MDA-MB-435,> 78.1 µM
same,TGI,MDA-N,> 86.9 µM
same,TGI,K-562 leukemia,> 81.6 µM
same,TGI,UACC-257 melanoma,> 82.3 µM
same,TGI,SNB-75 CNS,> 100 µM
same,TGI,NCI-H23 lung,> 100 µM
same,TGI,RPMI-8226 leukemia,> 62.9 µM
same,TGI,SF-295 CNS,> 100 µM
same,TGI,OVCAR-3 ovarian,> 100 µM
same,TGI,HL-60(TB) leukemia,> 46.4 µM
same,TGI,HCC-2998 colon,> 88.6 µM
same,TGI,CCRF-CEM leukemia,> 100 µM
same,TGI,ACHN renal,> 100 µM
same,TGI,SK-MEL-2 melanoma,> 72.5 µM
same,TGI,786-0 renal,> 100 µM
same,TGI,SK-OV-3 ovarian,> 100 µM
same,TGI,OVCAR-5 ovarian,> 100 µM
same,TGI,PC-3 prostate,> 90.8 µM
same,TGI,OVCAR-4 ovarian,> 100 µM
same,TGI,A549 NSCLC,> 100 µM
same,TGI,NCI-H522 lung,> 100 µM
same,TGI,SF-268 CNS,> 31.6 µM
same,TGI,COLO 205 colon,> 59.6 µM
same,TGI,SR leukemia,> 56.1 µM
same,TGI,SK-MEL-5 melanoma,> 41.9 µM
same,TGI,SF-539 CNS,> 100 µM
same,TGI,MCF7 breast,> 77.7 µM
same,TGI,SW-620 colon,> 100 µM
same,TGI,SN12C renal,> 100 µM
same,TGI,CAKI-1 renal,> 100 µM
same,TGI,LOX IMVI melanoma,> 100 µM
same,TGI,OVCAR-8 ovarian,> 100 µM
same,TGI,HOP-62 NSCLC,> 100 µM
same,TGI,MDA-MB-231 breast,> 100 µM
same,TGI,EKVX NSCLC,> 95.1 µM
same,TGI,IGROV1 ovarian,> 100 µM
same,TGI,HT29 colon,> 72.4 µM
same,TGI,UACC-62 melanoma,> 100 µM
same,TGI,RXF 393 renal,> 93.5 µM
same,TGI,MOLT-4 leukemia,> 71.4 µM
same,TGI,HS 578T breast,> 100 µM
same,TGI,HCT-15 colon,> 100 µM
same,TGI,UO-31 renal,> 100 µM
same,TGI,NCI-H460 lung,> 100 µM
same,TGI,NCI/ADR-RES ovarian,65.5 µM
same,TGI,T-47D breast,> 65.4 µM
same,TGI,HCT-116 colon,> 100 µM
same,TGI,BT-549 breast,> 80.5 µM
same,TGI,TK-10 renal,> 96.5 µM
same,TGI,MALME-3M melanoma,> 100 µM
same,TGI,HOP-92 NSCLC,> 88.6 µM
CCCCN1C(=O)C[C@H]2[C@@H]3CCc4cc(OCCN5CCCC5)ccc4[C@H]3CC[C@]2(C)C1=O,TGI,SNB-19 CNS,26.5 µM
same,TGI,NCI-H226 lung,21.4 µM
same,TGI,DU-145 prostate,27 µM
same,TGI,U251 CNS,19.4 µM
same,TGI,KM12 colon,21.9 µM
same,TGI,M14 melanoma,3.92 µM
same,TGI,SK-MEL-28 melanoma,12 µM
same,TGI,A498 renal,29.4 µM
same,TGI,MDA-MB-435,19.1 µM
same,TGI,MDA-N,15.1 µM
same,TGI,K-562 leukemia,7.23 µM
same,TGI,UACC-257 melanoma,13.4 µM
same,TGI,SNB-75 CNS,14 µM
same,TGI,NCI-H23 lung,25.6 µM
same,TGI,RPMI-8226 leukemia,9.53 µM
same,TGI,SF-295 CNS,9.63 µM
same,TGI,OVCAR-3 ovarian,23.7 µM
same,TGI,HL-60(TB) leukemia,> 23.2 µM
same,TGI,HCC-2998 colon,15.8 µM
same,TGI,CCRF-CEM leukemia,15 µM
same,TGI,ACHN renal,25.5 µM
same,TGI,SK-MEL-2 melanoma,19.2 µM
same,TGI,786-0 renal,9.64 µM
same,TGI,SK-OV-3 ovarian,27.4 µM
same,TGI,OVCAR-5 ovarian,24.3 µM
same,TGI,PC-3 prostate,20.4 µM
same,TGI,OVCAR-4 ovarian,27.6 µM
same,TGI,A549 NSCLC,22.5 µM
same,TGI,NCI-H522 lung,22.7 µM
same,TGI,SF-268 CNS,28 µM
same,TGI,COLO 205 colon,3.95 µM
same,TGI,SR leukemia,23.6 µM
same,TGI,SK-MEL-5 melanoma,15.7 µM
same,TGI,SF-539 CNS,21.4 µM
same,TGI,MCF7 breast,15.6 µM
same,TGI,SW-620 colon,25.1 µM
same,TGI,SN12C renal,30.2 µM
same,TGI,CAKI-1 renal,19.2 µM
same,TGI,LOX IMVI melanoma,10.8 µM
same,TGI,OVCAR-8 ovarian,30.8 µM
same,TGI,HOP-62 NSCLC,12.2 µM
same,TGI,MDA-MB-231 breast,15.7 µM
same,TGI,EKVX NSCLC,30.1 µM
same,TGI,IGROV1 ovarian,30.7 µM
same,TGI,HT29 colon,5.06 µM
same,TGI,UACC-62 melanoma,10.4 µM
same,TGI,RXF 393 renal,4.59 µM
same,TGI,MOLT-4 leukemia,14.3 µM
same,TGI,HS 578T breast,39.8 µM
same,TGI,HCT-15 colon,22.4 µM
same,TGI,UO-31 renal,15.6 µM
same,TGI,NCI-H460 lung,21.3 µM
same,TGI,NCI/ADR-RES ovarian,38 µM
same,TGI,T-47D breast,30.4 µM
same,TGI,HCT-116 colon,16.4 µM
same,TGI,BT-549 breast,26.6 µM
same,TGI,TK-10 renal,28.3 µM
same,TGI,MALME-3M melanoma,16.1 µM
same,TGI,HOP-92 NSCLC,18.3 µM

# Reference: PubChem BioAssay (NCI)
